{"source": "paper PMC4730870", "about": "(Journal of natural products, 2015)", "tested_on": "peritoneal macrophages", "experiment": "In vitro mammalian toxicity, MTT method", "assay_type": "cell-based, BALB/c mice", "conditions": "CC50 against macrophages/IC50 against amastigotes"}
{"smiles": "C=CCc1ccc(Oc2cc([C@H](O)C=C)cc(OC)c2O)c(OC)c1", "note": "[Compound 3, 1-[(7R)-Hydroxy-8-propenyl]-3-[3′-methoxy-1′-(8′-propenyl)-phenoxy]-4-hydroxy-5-methoxybenzene]", "values": [{"measurement": "SI selectivity index (CC50 mammalian cells/IC50 Leishmania amastigotes)", "result": ">2.9"}]}
